From patent US10801023B2, “Methods of identifying biologically active random peptides in plants and libraries of plants expressing candidate biologically active random peptides” (University of Florida Research Foundation, Inc., priority 2015, dated 2020)

Legend:
[1] = tested on: Arabidopsis thaliana plants; test: Screening of library of transformed plants expressing candidate BARPs for new phenotypes; format: in vivo; settings: for new phenotype associated with the BARP: plant of the library from which the BARP sequence was isolated; for phenotype: transgenic Arabidopsis thaliana expressing the BARP, scored from emergence to senescence
Source text: In the present example, the methods of the present disclosure were used to generate a library of test nucleic acids encoding a plurality of candidate BARPs, each having a core 6 amino acid random peptide sequence flanked by two cysteine residues. The sequences were also flanked by start and stop codons and Gateway® sequences, such as illustrated in FIG. 1. PCR was used with primers corresponding to the known Gateway flanking sequences to generate the test nucleic acid library. The oligonucleotides were then cloned into bacterial vectors including genes for kanamycin resistance to create a recombination vector library. The vectors were then moved to Agrobacterium tumefaciens strain […] and used to transform Arabidopsis thaliana plants. Seeds were collected from the transformed plants and used to grow new plants. These plants were observed from seedling through the plant lifecycle and observed for new phenotypes. Several new phenotypes emerged, DNA was extracted from the plants displaying new phenotypes, and the sequence of the candidate BARP from the plants was determined. The procedures and results are described in detail below.
The test nucleic acid sequences were synthesized using conserved initiator and terminator sequences flanking 18 random nucleotides, which provides a peptide that is ten amino acids long, with six of the core amino acids randomized, following a Met-Ala-Cys and ending with a Cys-term. This template is illustrated in FIG. 1. In the present example, the corresponding nucleic acid sequence was […] (SEQ ID NO: 5; nucleotides 14-46 of SEQ ID NO: 1). The cysteine residues in this case provide potential for formation of disulfide bonds that may impart additional structure to the adjacent amino acid loop. Although in this example 18 random nucleotides (identified as “N” in SEQ ID NOs: 1 and 5) were used, any number may be used, as long as it is a multiple of three.
To construct the library of random-core BARP sequences, the above DNA sequence was synthesized as an oligonucleotide sequence, along with flanking sequences corresponding to the Gateway® recombination sequences. The middle portion of the sequence, represented by “N” in FIG. 1, were randomized nucleotides. Known synthesis techniques were used to build the sequences, resulting in a library of PCR products containing test nucleic acid sequences (start codon, spacer codon, cysteine codon, 18 random nucleotides encoding a core candidate BARP sequence, second cysteine codon, and stop codon) flanked by Gateway recombination sequences. Although Gateway® sequences were used in the present examples, other recombination cloning primer sequences could be used or specifically designed.
The library of PCR products containing random test sequences was amplified using PCR based on flanking primers containing Gateway recombination sequences. These reactions produced a population of PCR products each containing the core peptide test sequence flanked by Gateway recombination sequences. These PCR products were introduced to the vector pDONR222 using Gateway recombination, and then transformed into E. coli genotype DH5α. The transformation vector also included the NPTII gene for kanamycin resistance. The E. coli cells were plated on kanamycin plates at low density to obtain single-colony separation. The single colonies each contained a separate plasmid bearing a random peptide sequence.
The colonies were recovered from plates in liquid medium, and the plasmids were isolated. The isolated plasmids represented a library of many independent, random sequences (encoding candidate BARPs) flanked by ‘start’ and ‘stop’ sequences. […]

[2] = tested on: Arabidopsis plants; test: Plant growth and phenotyping of PEP6 / PEP12 transgenic plants; format: in vivo, Arabidopsis thaliana; settings: transgenic plant in soil; normal-sized plants 25 mm to 30 mm
Source text: Two libraries encoding six- and twelve-random amino acid cyclized peptides (denoted PEP6 and PEP12, respectively) were constructed in binary vectors (as illustrated in FIG. 9) using a Gateway cloning strategy and transformed into Arabidopsis. More than 1,500 transgenic plants with the PEP6 T-DNA inserts were isolated and more than 600 transgenic plants were isolated carrying the PEP12 insert, representing a survival ratio of 1.8% and 1.2% respectively under kanamycin selection. To ensure library representation in the population, DNA was prepared from at least fifty transgenic plants, including ten that had small rosette diameter (5 mm to 10 mm) (e.g., those having BARP sequences SEQ ID NO: 14, 16, 6, 19, 21, 23, 26, 28, 30, and 32) compared to normal-sized plants (25 mm to 30 mm; see Table 2). The nucleotide sequences of all amplified random peptide open reading frames (rpORFs) were different, indicating representation of library diversity was maintained throughout the cloning and transformation process. Several phenotypes were visually apparent. […] Some plants showing multiple growth defects were recorded in each phenotype. Bolting plants with multiple inflorescences were transformed with the PEP6 or PEP12 destination library through the floral dipping method (Clough and Bent, 1998, incorporated herein by reference). For selection, seeds were surface sterilized by 70% ethanol for 5 min and 10% bleach for 20 min. Surface-sterilized seeds were plated on ½× MS basal medium with 0.5% Phyto Agar (cat. # M10200 and # A20300, Research Products International) and 50 μg/ml kanamycin for selection. Transgenic seedlings were identified by GFP expression or resistance to kanamycin. Transformed seedlings were grown to the 3-5 true leaf stage on plates and transferred to soil. DNA was extracted from each seedling (Edwards et al., 1991 incorporated herein by reference) for inserted nucleotide sequence identification. An approximately 500 bp DNA fragment containing the random peptide ORF and part of pK7WG2D vector sequence was amplified using primers PEP-F and PEP-R (SEQ ID NOs: 35 and 36, respectively) listed in Table 4 and sequenced. Arabidopsis plants were grown in soil at 20° C. under 16 hour light/8 hour dark conditions. The characterization of phenotypic variations was based on the comparison among seedlings grown in the same pot or flat.

[3] = tested on: Arabidopsis thaliana plants; test: Independent replication of peptide-induced phenotypes in independent transformant lines; format: in vivo; settings: BARP sequence re-introduced into Arabidopsis thaliana
Method: A number of first-transformed generation plants were prepared and phenotypes were observed using the methods described in Example 1, above. In this example some 12-amino-acid-long candidate BARPs were also synthesized and tested. The procedures were the same as for the 6-aa BARPs described in Example 1. These phenotypes were also observed to be stable and inherited in subsequent generations. To verify that the effects observed are due to the expressed peptide and not to other less-likely positional/insertional causes, in this Example, a substantial number of the of the candidate 6 and 12 amino-acid-long BARPs were sequenced and separately transformed into independent plants. […] One microliter was used in a PCR reaction under standard conditions, and using primers corresponding to the attachment (recombinational cloning sequences) of the Gateway vector, the corresponding BARP sequences was amplified. This sequences were then recombined into the pDONR222 vector and then re-ligated into the binary pKWDG2 over-expression vector as described above. This sequence was then re-introduced into Arabidopsis thaliana plants using the floral dipping strategy and selection as noted above. The seedlings were then analyzed for the phenotype as defined by the original transformant. Recapitulation of the phenotype in multiple, independent transformation events provided high evidence of a specific physiological effect of the peptide.

[4] = tested on: Arabidopsis thaliana seedlings; test: Salt tolerance screen and root elongation on salt media; format: in vivo
Method: Also, to test for phenotypes not readily observable under normal conditions, seeds were collected from all plants in sets of nine and stored together, then planted and screened in various stress conditions to identify additional phenotypes. For example, seeds were planted on plant-growth media containing […] to screen for seedlings showing resistance to salt. Populations of BARP containing plants have also been grown in soil under water-deficit stress, leading to identification of peptides that confer tolerance to drought stress up on further evaluation.
Also, to test for phenotypes not readily observable under normal conditions, seeds were collected from all plants, stored, and later planted and screened in various stress conditions to identify additional phenotypes. […] Two lines thrived on the high-salt media, one of them resulting in a conspicuous root phenotype. […] The left-hand bars in the graph in FIG. 7A represent wild-type seedlings, and the right-hand bars show the effect of the peptide. Root elongation was measured four days after germination (Day 0) and then again at four-day intervals. Error bars represent standard error of the mean.

[5] = tested on: Arabidopsis seedlings; test: Inhibition of hypocotyl elongation under different light conditions; format: in vivo, Arabidopsis thaliana
Method: Seeds were surface sterilized using a brief treatment of 70% ethanol and then set to dry on sterile paper discs in a laminar flow hood. The seeds were placed on 1 mM KCl plus 1 mM CaCl2 media containing 1% Phyto Agar on 100 mm square plates and stratified for 48 h. The vertical plates were transferred to various light conditions of varying spectral quality and fluence rates (as described in FIGS. 12A-12B), or complete darkness. […] Plants grown in darkness were placed under one of the narrow bandwidth treatments wrapped in two layers of aluminum foil. After 96 h the plates were scanned and the seedlings were measured using ImageJ software, and the length of the seedlings was reported as a fraction of dark-grown seedling length.

“MACDFLADLC (chemically synthesized peptide sequence of BARP associated with bushy seedling phenotype) [SEQ ID NO: 3]” was tested, and the “new phenotype associated with the BARP” value [1] was ““bushy” seedling with small and upright leaves”.
Work on “MACGGGCSAC (chemically synthesized peptide sequence of BARP PEP6-46) [PEPB-46]” yielded a rosette size [2] of 10 mm.
“MACGKGSGLC (chemically synthesized peptide sequence of BARP associated with purple pigment accumulation in seed pods) [SEQ ID NO: 2]” was tested, and the “new phenotype associated with the BARP” value [1] was “hyperaccumulation of purple pigments in seed pods”.
“MACKQAXQRC (chemically synthesized peptide sequence of BARP CBF6AA-85 associated with large, flat leaves and small petioles) [BARP; “X” represents a stop codon]” was tested, and the “phenotype in independent transformant lines” value [3] was “large, flat leaves with small petioles” and the phenotype [1] was “tiny, curly leaves”.
Work on “MACNCSSDGC (chemically synthesized peptide sequence of BARP PEP6-27)” yielded a rosette size [2] of 8 mm.
With “MACPASVSVC (chemically synthesized peptide sequence of BARP 6AA-33.1 associated with salt resistance and elongated root growth) [PEP6-32, BARP associated with salt resistance, root growth and red light insensitivity]” the salt tolerance ([4]; plant-growth media containing 100 μM NaCl) was “salt tolerance”, the root elongation ([4]; seedlings on vertical agar plates under light, versus wild-type) was “increase in root elongation” and the “hypocotyl length versus controls” value ([5]; 0.5 μmol·m^−2·s^−1 blue light) was “slightly longer hypocotyls”. The “hypocotyl length versus controls” value ([5]; blue light, fluence rates of 2 and 10 μmol·m^−2·s^−1) was “differences were not observed”, the “hypocotyl length versus wild-type controls” value ([5]; constant red light, fluence rates of 1, 10 and 50 μmol·m^−2·s^−1, four lines) was “longer hypocotyls than wild-type controls” and the “seedling growth versus wild-type” value ([5]; darkness) was “comparable to wild-type seedlings”. For the same sequence, the “hypocotyl length versus controls” value ([5]; far red light conditions) was “No significant differences”, the “hypocotyl length versus other seedlings” value ([5]; white light) was “slightly longer hypocotyls” and the rosette size [2] was 27 mm.
In the case of “MACPNACFSC (chemically synthesized peptide sequence of BARP PEP6-33)”, the rosette size [2] is reported as 9 mm.
With “MACQELTMWC (chemically synthesized peptide sequence of BARP PEP6-30)” the rosette size [2] was 10 mm.
“MACQLMWREC (chemically synthesized peptide sequence of BARP PEP6-28)” gave a rosette size [2] of 8 mm.
In the case of “MACQQMLSGC (chemically synthesized peptide sequence of BARP PEP6-37)”, the rosette size [2] is reported as 8 mm.
“MACSAHCSDC (chemically synthesized peptide sequence of BARP associated with abberrant seedling characteristics) [SEQ ID NO: 4, BARP associated with strange seedling characteristics]” was tested, and the “new phenotype associated with the BARP” value [1] was “aberrant seedling characteristics”.
For “MACSDVSVIC (chemically synthesized peptide sequence of BARP PEP6-38)”, the rosette size [2] was 8 mm.
“MACWMSRMEC (chemically synthesized peptide sequence of BARP PEP6-12)” gave a rosette size [2] of 5 mm.
“MACWTSSVLC (chemically synthesized peptide sequence of BARP CBF6AA-110 associated with large, flat leaves and small petioles)” was tested, and the “phenotype in independent transformant lines” value [3] was “large, flat leaves with small petioles” and the phenotype [1] was “tiny”.
“MGCVCIEPYQRLRAKC (chemically synthesized peptide sequence of BARP 12AA-97 associated with arrested plant growth)” was tested, and the “phenotype in independent transformant lines” value [3] was “arrested plant growth” and the phenotype [1] was “died late”.
